Laboratory results taken from US12048708B2 (RHOSHAN PHARMACEUTICALS, INC., priority 2017, dated 2024).

Legend:
rabbit ear vein = experiment: IV irritation studies in rabbit ear vein; format: in vivo; conditions: ASA solution of different osmolalities (300 to 1300 mOsm/kg) injected in rabbit ear vein
Text: It is an unexpected discovery or finding.

[1] = Lyophilization of aspirin with lysine from water, HPLC analysis; format: physicochemical; conditions: ASA with lysine in water, 50 mg/ml, pH 6.5, HPLC
Protocol: The pH of the solution was 4.5. We added an additional amount of lysine to raise the pH of the bulk solution to 6.5. When all the drug was dissolved, a clear solution was formed. […] The product, however, was not lyophilized properly. The lyophilized cake collapsed.

platelet aggregation = conditions: following oral dosing, oral tablet or capsule; cited from earlier work
[2] = pH of bulk and reconstituted solutions of ASA lyophilized with bases from TBA/water; format: physicochemical
Text: The pH of the solution was raised to 6.5 using 1N sodium hydroxide. Phase separation was observed, probably due to salting out of inorganic base from TBA/Water system. In the next trial, we first raised the pH of the solution to 5.0 using 1N sodium hydroxide, and then sodium phosphate, dibasic to raise the pH to 6.5. Sodium phosphate, dibasic was used for a better control of pH. Since we still observed phase separation it appears that inorganic bases or buffers may not be compatible with a 80% TBA/20% water system. We may require more water, for example, 70% TBA/30% water in the system to dissolve the alkalinizing agents.
Inorganic buffers such as sodium phosphate, dibasic, are not soluble in this solvent system.
The reconstituted solution pH was 4.71.
In the next trial, we investigated incorporation of […] to facilitate complete neutralization. […] Arginine was, then, slowly added to the slurry to neutralize aspirin. […] The apparent pH of the bulk solution was 6.49. 5 ml aliquots placed in flint vials and lyophilized. Upon completion of lyophilization, the content of vial was reconstituted with 5 ml of Water for Injection. […] The reconstituted solution pH was 4.8.
Based on the above studies, it was evident that larger amount of base is needed to neutralize ASA in the preferred solvent system. To incorporate more base in the bulk solution, we explored use of 60/40 TBA/water system as solvent for lyophilization. […] The apparent pH of the bulk solution was 6.31. […] The reconstituted solution pH was 4.41. […] We reconstituted the lyophile with 5 ml of buffer solution containing different concentrations of disodium phosphate.

[3] = Bulk solution stability of ASA in TBA-water system; format: physicochemical; conditions: 80/20, 70/30 and 60/40 TBA/water solutions, 24-hour storage at ambient storage conditions
Protocol: For a robust lyophilization process, the drug should not degrade in the bulk solution for lyophilization for at least 24 hours.

[4] = Particle size distribution (Malvern Master sizer 2000, dry powder volume distribution); format: physicochemical; conditions: API used to make the batches
Text: Additionally, we have measured the particle size distribution of the lyophiles and API. The measurement of particle size (Malvern, Master sizer 2000) of all the samples were done by using dry powder volume distribution method.

[5] = cited from earlier work

- ASA degraded during the lyophilization process [1]: about 40%
- apparent pH of the bulk solution ([2]; 2 g aspirin, 100 mg sodium hydroxide, about 1.6 g arginine in 100 ml 70/30 TBA/water): 6.49
- apparent pH of the bulk solution ([2]; 2 g of ASA and 400 mg sodium hydroxide in 100 ml 60/40 TBA/water): 6.31
- reconstituted solution pH ([2]; lyophile of 2 g aspirin, 100 mg sodium hydroxide, about 1.6 g arginine per 100 ml 70/30 TBA/water, 5 ml aliquot reconstituted with 5 ml Water for Injection): 4.8
- degradation in bulk solution [3]: No appreciable degradation
- D50% (μm) [4]: 92.9 μm
- D90% (μm) [4]: 249.5 μm
- D100% (μm) [4]: 431.0 μm
Substance: o-acetylsalicylic acid [ASA]
- IV irritation (rabbit ear vein): no irritation was observed
- onset of inhibition of platelet aggregation (platelet aggregation): approximately 40 minutes
- aqueous solubility [5]: about 3 mg/ml
- time to 10% of potency loss ([5]; concentrated bulk solution): about 1.3 hours
